# Reference: ChEMBL document CHEMBL5150075 (J Med Chem, 2022)
# Active and inactive are the calls of the source. No cut-off for these calls is given here.
# Tests used:
# Tubulin (Homo sapiens) = Tubulin (Homo sapiens) (UniProt P68371+Q9H4B7+P0DPH7+P68366+Q13509+Q71U36+P04350+Q3ZCM7+P07437+P68363+Q9BQE3+Q6PEY2+Q13885+Q9BVA1+Q9BUF5); test: Inhibition of tubulin polymerization in human DU-145 cells assessed as inhibition of tubulin assembly at 0.1 uM incubated for 16 hrs by Hoechst staining based confocal microscopy analysis; type: cell-based
# DU-145 [1] = test: Induction of G2/M phase cell cycle arrest in human DU-145 cells assessed as decrease in Cdc2 phosphorylation at T14/Y15 residue at 0.03 to 0.3 uM measured after 12 hrs by Western blot analysis; type: functional, cell-based; settings: dose 0.03-0.3 µM
# DU-145 [2] = test: Induction of apoptosis in human DU-145 cells assessed as live cells at 0.03 uM incubated for 48 hrs by Annexin V-FITC/PI staining based flow cytometry analysis (reference value: 94.94%); type: functional
# DU-145 [3] = test: Induction of apoptosis in human DU-145 cells assessed as early apoptotic cells at 0.1 uM incubated for 48 hrs by Annexin V-FITC/PI staining based flow cytometry analysis (reference value: 1.97%); type: functional
# DU-145 [4] = test: Induction of apoptosis in human DU-145 cells assessed as live cells at 0.3 uM incubated for 48 hrs by Annexin V-FITC/PI staining based flow cytometry analysis (reference value: 94.94%); type: functional
# DU-145 [5] = test: Induction of apoptosis in human DU-145 cells assessed as early apoptotic cells at 0.3 uM incubated for 48 hrs by Annexin V-FITC/PI staining based flow cytometry analysis (reference value: 1.97%); type: functional
# DU-145 [6] = test: Antiproliferative activity against human DU-145 cells assessed as inhibition of cell growth incubated for 24 hrs by real-time cell analysis; type: functional, cell-based; settings: DU-145, 24 h
# DU-145 [7] = test: Antiproliferative activity against human DU-145 cells assessed as inhibition of cell growth incubated for 72 hrs by real-time cell analysis; type: functional, cell-based; settings: DU-145, 72 h
# DU-145 [8] = test: Antiproliferative activity against human DU-145 cells assessed as inhibition of cell growth incubated for 96 hrs by real-time cell analysis; type: functional, cell-based; settings: DU-145, 96 h
# NCI-H1437 = test: Antiproliferative activity against human NCI-H1437 cells assessed as inhibition of cell growth incubated for 72 hrs by MTT assay; type: functional, cell-based; settings: NCI-H1437, 72 h
# HCT-8 = test: Antiproliferative activity against human HCT-8 cells assessed as inhibition of cell growth incubated for 72 hrs by MTT assay; type: functional, cell-based; settings: HCT-8, 72 h
# SW1990 = test: Antiproliferative activity against human SW1990 cells assessed as inhibition of cell growth incubated for 72 hrs by MTT assay; type: functional, cell-based; settings: SW1990, 72 h
# B16-F10 = test: Antiproliferative activity against mouse B16-F10 cells assessed as inhibition of cell growth incubated for 72 hrs by MTT assay; type: functional, cell-based; settings: B16-F10, 72 h
# HUVEC = test: Anti-angiogenesis activity against HUVEC cells assessed as inhibition of cell growth incubated for 72 hrs by MTT assay; type: functional, cell-based; settings: Homo sapiens
# [9] = Resistance index, ratio of IC50 for antiproliferative activity against paclitaxel-resistant human A549 cells to IC50 for antiproliferative activity against human A549 cells; type: functional
# [10] = Resistance index, ratio of IC50 for antiproliferative activity against paclitaxel-resistant human MCF7R cells to IC50 for antiproliferative activity against human MCF7 cells; type: functional
# [11] = Stability in mouse liver microsomes assessed as half life incubated in presence of NADPH by LC-MS/MS analysis; type: ADME, Microsome
# [12] = Stability in human liver microsomes assessed as half life incubated in presence of NADPH by LC-MS/MS analysis; type: ADME, Microsome
# [13] = Clearance in Kunming mouse at 2 mg/kg, iv by LC-MS/MS analysis; type: ADME, organism-based; settings: in vivo
# [14] = AUC (0 to t) in Kunming mouse at 2 mg/kg, iv by LC-MS/MS analysis; type: ADME, organism-based; set-up: dose 2 mg/kg, route iv; settings: in vivo
# [15] = Oral bioavailability in Kunming mouse at 20 mg/kg by LC-MS/MS analysis; type: ADME, organism-based; settings: in vivo
# DU-145 [16] = test: Antitumor activity against human DU-145 cells xenografted in BALB/c nude mouse assessed as tumor growth inhibition at 5 mg/kg, po administered once daily and measured twice a week relative to control; type: functional; settings: read-out: TGI
# DU-145 [17] = test: Antitumor activity against human DU-145 cells xenografted in BALB/c nude mouse assessed as tumor growth inhibition at 10 mg/kg, po administered once daily and measured twice a week relative to control; type: functional; settings: read-out: TGI
# NCI-H1299 = test: Antitumor activity against human NCI-H1299 cells xenografted in BALB/c nude mouse assessed as suppression of tumor growth at 20 mg/kg, po administered once daily and measured twice a week relative to control; type: functional
# [18] = Toxicity in C57BL/6 mouse implanted with mouse B16-F10 cells assessed as […] at 20 mg/kg, po administered once daily and measured twice a week for 14 days; type: organism-based; settings: in vivo, 336 h, time 14 day
# [19] = biological target: Voltage-gated inwardly rectifying potassium channel KCNH2 (Homo sapiens, UniProt Q12809); test: Inhibition of hERG expressed in CHO cells by whole cell patch clamp method; type: toxicity, cell-based
# Chain of Voltage-gated inwardly rectifying potassium channel KCNH2 (Q12809 whole entry): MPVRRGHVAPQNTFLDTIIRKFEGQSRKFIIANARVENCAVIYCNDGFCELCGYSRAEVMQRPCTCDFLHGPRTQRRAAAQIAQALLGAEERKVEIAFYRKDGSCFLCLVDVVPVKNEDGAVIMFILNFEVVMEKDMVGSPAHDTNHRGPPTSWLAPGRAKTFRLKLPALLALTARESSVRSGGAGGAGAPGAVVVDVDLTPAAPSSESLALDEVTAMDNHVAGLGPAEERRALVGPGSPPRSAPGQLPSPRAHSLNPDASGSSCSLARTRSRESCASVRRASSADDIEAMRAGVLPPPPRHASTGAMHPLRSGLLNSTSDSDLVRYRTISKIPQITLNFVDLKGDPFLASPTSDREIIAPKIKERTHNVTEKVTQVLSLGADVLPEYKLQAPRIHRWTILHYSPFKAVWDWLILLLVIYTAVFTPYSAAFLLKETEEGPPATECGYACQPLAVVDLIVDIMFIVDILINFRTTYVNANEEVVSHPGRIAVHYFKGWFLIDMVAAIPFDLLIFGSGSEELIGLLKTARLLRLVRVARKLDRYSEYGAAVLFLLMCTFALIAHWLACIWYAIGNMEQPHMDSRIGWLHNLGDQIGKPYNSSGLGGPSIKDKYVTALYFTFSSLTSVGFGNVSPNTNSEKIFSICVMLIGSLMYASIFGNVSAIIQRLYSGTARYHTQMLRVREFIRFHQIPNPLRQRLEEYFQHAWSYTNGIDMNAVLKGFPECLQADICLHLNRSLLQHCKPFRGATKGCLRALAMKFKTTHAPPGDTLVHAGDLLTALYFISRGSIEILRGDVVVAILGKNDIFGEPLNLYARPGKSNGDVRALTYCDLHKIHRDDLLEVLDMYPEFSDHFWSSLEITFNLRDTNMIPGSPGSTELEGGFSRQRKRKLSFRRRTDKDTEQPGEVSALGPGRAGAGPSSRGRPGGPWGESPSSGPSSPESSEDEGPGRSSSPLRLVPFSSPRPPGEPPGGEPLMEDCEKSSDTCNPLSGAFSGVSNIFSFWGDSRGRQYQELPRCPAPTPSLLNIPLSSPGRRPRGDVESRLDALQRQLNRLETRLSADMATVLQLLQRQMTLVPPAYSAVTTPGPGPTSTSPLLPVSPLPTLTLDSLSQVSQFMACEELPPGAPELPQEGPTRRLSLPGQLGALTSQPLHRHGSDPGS
# [20] = biological target: Sodium channel protein type 5 subunit alpha (Homo sapiens, UniProt Q14524); test: Inhibition of human Nav1.5 expressed in CHO cells by manual patch clamp method; type: toxicity, cell-based
# [21] = biological target: L-type calcium channel alpha-1c/beta-2/alpha2delta-1 (Homo sapiens, UniProt P54289+Q08289+Q13936); test: Inhibition of human alpha1c/beta2a/alpha2delta1 Cav1.2 expressed in HEK293 cells assessed as effect on calcium flux by FLIPR analysis; type: toxicity, cell-based
# Chain of L-type calcium channel alpha-1c/beta-2/alpha2delta-1 (P54289 25-956 limits assumed): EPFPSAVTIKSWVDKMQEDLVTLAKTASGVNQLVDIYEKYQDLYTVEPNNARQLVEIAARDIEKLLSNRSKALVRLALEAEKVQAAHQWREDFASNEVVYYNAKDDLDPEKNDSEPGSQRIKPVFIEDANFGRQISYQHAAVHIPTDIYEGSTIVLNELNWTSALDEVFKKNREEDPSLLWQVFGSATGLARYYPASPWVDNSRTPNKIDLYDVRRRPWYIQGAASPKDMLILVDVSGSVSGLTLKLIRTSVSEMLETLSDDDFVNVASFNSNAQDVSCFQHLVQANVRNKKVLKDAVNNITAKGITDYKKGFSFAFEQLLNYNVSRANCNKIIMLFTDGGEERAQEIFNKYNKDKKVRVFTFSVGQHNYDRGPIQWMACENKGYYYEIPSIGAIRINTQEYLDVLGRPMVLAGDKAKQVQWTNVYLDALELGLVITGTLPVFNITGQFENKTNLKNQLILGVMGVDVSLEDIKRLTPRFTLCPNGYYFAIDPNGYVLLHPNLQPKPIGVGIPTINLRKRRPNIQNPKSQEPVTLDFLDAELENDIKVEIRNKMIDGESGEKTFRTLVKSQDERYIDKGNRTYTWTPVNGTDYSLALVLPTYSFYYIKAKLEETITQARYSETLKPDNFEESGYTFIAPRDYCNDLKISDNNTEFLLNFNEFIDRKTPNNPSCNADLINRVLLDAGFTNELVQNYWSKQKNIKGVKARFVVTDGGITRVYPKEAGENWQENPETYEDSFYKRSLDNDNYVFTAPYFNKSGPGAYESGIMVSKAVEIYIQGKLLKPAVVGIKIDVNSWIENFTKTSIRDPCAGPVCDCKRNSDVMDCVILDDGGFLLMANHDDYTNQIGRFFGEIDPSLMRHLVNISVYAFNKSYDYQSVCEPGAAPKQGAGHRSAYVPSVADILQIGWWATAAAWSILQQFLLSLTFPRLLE
# Chain of L-type calcium channel alpha-1c/beta-2/alpha2delta-1 (P54289 957-1103 limits assumed): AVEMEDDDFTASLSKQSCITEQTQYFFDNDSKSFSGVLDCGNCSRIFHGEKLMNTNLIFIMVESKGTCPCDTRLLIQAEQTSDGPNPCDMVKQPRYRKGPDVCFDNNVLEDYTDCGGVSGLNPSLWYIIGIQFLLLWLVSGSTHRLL
# Chain of L-type calcium channel alpha-1c/beta-2/alpha2delta-1 (Q08289 whole entry): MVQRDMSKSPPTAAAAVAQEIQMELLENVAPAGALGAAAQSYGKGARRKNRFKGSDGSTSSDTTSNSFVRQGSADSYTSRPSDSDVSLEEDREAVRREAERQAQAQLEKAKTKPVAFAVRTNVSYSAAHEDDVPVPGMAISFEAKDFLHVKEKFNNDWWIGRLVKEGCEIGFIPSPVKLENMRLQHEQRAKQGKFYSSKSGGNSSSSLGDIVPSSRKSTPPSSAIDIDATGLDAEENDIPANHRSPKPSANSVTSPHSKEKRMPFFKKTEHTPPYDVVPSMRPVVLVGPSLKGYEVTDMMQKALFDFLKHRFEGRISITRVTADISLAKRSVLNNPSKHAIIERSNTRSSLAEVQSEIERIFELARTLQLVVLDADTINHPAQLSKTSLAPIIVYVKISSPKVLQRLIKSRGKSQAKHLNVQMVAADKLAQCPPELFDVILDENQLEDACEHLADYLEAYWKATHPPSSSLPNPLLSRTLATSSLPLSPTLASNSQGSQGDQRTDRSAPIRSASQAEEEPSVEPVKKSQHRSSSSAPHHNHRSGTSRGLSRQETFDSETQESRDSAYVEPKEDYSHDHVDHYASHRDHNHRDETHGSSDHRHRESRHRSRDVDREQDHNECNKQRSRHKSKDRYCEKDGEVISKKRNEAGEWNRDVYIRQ
# Chain of L-type calcium channel alpha-1c/beta-2/alpha2delta-1 (Q13936 whole entry): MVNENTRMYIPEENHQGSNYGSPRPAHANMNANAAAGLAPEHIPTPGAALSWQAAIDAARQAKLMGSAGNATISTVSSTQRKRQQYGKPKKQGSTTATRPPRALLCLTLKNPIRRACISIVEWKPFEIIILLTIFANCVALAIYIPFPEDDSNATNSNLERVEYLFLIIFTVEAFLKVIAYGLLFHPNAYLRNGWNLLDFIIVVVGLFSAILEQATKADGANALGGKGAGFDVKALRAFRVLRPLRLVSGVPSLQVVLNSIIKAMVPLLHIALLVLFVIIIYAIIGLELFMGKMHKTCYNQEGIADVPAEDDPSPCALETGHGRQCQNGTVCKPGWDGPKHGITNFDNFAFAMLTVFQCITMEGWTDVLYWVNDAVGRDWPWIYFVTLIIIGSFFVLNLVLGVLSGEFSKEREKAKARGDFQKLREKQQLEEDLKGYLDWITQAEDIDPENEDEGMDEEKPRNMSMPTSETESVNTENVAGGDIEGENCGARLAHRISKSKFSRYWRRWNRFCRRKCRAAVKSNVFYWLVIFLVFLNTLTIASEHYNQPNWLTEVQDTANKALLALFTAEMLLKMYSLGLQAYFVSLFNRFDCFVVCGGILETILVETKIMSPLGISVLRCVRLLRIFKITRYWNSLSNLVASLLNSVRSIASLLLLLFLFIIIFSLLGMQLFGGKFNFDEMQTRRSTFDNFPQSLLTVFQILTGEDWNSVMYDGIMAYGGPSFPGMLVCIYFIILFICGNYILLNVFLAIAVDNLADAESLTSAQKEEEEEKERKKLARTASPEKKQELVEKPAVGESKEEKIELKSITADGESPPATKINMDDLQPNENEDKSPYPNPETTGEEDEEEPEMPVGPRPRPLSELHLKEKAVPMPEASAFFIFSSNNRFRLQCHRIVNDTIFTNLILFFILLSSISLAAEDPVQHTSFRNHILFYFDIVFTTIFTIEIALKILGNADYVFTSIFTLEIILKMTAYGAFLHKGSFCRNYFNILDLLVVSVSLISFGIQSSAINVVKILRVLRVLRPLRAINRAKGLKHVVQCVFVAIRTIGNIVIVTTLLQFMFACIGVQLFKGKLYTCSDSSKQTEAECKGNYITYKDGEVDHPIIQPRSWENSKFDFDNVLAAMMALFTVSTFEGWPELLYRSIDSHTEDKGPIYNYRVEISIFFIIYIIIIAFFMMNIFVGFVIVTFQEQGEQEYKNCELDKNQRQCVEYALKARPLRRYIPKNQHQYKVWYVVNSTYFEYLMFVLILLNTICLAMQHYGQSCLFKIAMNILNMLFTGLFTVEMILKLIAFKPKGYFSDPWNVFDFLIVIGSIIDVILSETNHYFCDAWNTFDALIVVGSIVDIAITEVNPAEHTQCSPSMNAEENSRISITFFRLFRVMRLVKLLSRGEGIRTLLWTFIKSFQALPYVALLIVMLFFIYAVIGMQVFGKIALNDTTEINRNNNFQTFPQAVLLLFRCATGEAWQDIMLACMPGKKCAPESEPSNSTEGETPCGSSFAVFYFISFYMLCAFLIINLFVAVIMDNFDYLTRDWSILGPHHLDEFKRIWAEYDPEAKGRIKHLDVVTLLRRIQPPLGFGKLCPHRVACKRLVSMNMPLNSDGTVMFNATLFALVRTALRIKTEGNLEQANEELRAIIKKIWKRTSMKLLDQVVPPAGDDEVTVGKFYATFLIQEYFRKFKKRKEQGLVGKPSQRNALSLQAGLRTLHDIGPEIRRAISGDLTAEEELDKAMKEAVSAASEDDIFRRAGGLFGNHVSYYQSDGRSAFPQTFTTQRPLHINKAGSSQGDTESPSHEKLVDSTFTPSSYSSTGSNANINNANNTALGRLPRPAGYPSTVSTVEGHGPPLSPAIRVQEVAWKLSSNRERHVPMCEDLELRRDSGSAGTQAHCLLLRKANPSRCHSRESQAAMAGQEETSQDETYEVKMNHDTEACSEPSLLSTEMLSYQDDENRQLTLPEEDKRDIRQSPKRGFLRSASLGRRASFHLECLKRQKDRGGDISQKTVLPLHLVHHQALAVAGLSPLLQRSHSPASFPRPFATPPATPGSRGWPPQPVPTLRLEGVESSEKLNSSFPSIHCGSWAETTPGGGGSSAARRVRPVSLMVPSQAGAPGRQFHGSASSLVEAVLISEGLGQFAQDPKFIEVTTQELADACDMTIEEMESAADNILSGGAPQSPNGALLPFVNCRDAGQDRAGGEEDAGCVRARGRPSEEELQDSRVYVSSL
# [22] = Mutagenicity in Salmonella typhimurium TA-97 at 0.5 to 500 ug per plate incubated for 72 hrs in presence or absence of S9 fraction by Ames test; type: toxicity, Salmonella enterica subsp. enterica serovar Typhimurium; settings: in vivo, dose 0.5-500 µg
# [23] = Mutagenicity in Salmonella typhimurium TA-98 at 0.5 to 500 ug per plate incubated for 72 hrs in presence or absence of S9 fraction by Ames test; type: toxicity, Salmonella enterica subsp. enterica serovar Typhimurium; settings: in vivo, dose 0.5-500 µg
# [24] = Toxicity in po dosed ICR mouse assessed as maximum tolerated dose measured on day 14; type: organism-based; settings: in vivo, time 14 day
# [25] = Toxicity in specific pathogen-free Kunming mouse assessed as pathological changes in liver at 10 mg/kg, po administered once daily and measured after 7 days by hematoxylin and eosin staining based analysis; type: organism-based; settings: in vivo, 168 h, time 7 day
# [26] = Toxicity in specific pathogen-free Kunming mouse assessed as pathological changes in kidney at 10 mg/kg, po administered once daily and measured after 7 days by hematoxylin and eosin staining based analysis; type: organism-based; settings: in vivo, 168 h, time 7 day
# [27] = Toxicity in specific pathogen-free Kunming mouse assessed as pathological changes in colon tissues at 10 mg/kg, po administered once daily and measured after 7 days by hematoxylin and eosin staining based analysis; type: organism-based; settings: in vivo, 168 h, time 7 day
# NCI-H460 = test: cells; settings: Homo sapiens, NCI-H460, 72 h
# Description: Antiproliferative activity against human NCI-H460 cells assessed as inhibition of cell growth incubated for 72 hrs by MTT assay
# MDA-MB-231 = test: cells; settings: Homo sapiens, MDA-MB-231, 72 h
# HepG2 = test: cells; settings: Homo sapiens, HepG2, 72 h
smiles,measurement,setting,value
Cc1ccc(S(=O)(=O)Nc2cc(C(=O)NCc3ccc(C)nc3)ccc2C)cc1,inhibition,Tubulin (Homo sapiens),Active
same,Activity,DU-145 [1],Active
same,Activity,DU-145 [2],73.88%
same,Activity,DU-145 [3],24.79%
same,Activity,DU-145 [4],37.88%
same,Activity,DU-145 [5],26.3%
same,IC50,DU-145 [6],10 nM
same,IC50,DU-145 [7],9 nM
same,IC50,DU-145 [8],4 nM
same,IC50,NCI-H1437,2 nM
same,IC50,HCT-8,22 nM
same,IC50,SW1990,15 nM
same,IC50,B16-F10,2 nM
same,IC50,HUVEC,32 nM
same,Ratio IC50,[9],1.2
same,Ratio IC50,[10],2.48
same,half-life,[11],26 min
same,half-life,[12],24 min
same,clearance,[13],61.5 mL/min/kg
same,AUC(0-t),[14],534 ng·h/mL
same,bioavailability,[15],48.2%
same,inhibition in vivo at 5 mg/kg,DU-145 [16],37.4%
same,inhibition in vivo at 10 mg/kg,DU-145 [17],62.8%
same,Activity,NCI-H1299,73.6%
same,Activity,[18],Toxic
same,IC50,[19],> 10000 nM
same,IC50,[20],> 30000 nM
same,IC50,[21],> 30000 nM
same,Activity,[22],Non-Toxic
same,Activity,[23],Non-Toxic
same,MTD at 336 h,[24],> 60 mg/kg
same,Activity,[25],Non-Toxic
same,Activity,[26],Non-Toxic
same,Activity,[27],Non-Toxic
same,IC50,NCI-H460,77 nM
same,IC50,MDA-MB-231,9 nM
same,IC50,HepG2,3 nM
